Data as given in article PMC11868595, “Safety, pharmacokinetics and efficacy of HA121-28 in patients with advanced solid tumors and RET fusion-positive non-small-cell lung cancer: a multicenter, open-label, single-arm phase 1/2 trial” (Signal Transduction and Targeted Therapy, 2025).

Tested on: patients with advanced solid tumors
Assay: Phase 1 trial: adverse events (CTCAE), DLT and MTD
Assay type: in vivo, human
Description: The phase 1 trial was a two-part, multicenter, open-label, nonrandomized study to evaluate the safety and preliminary efficacy of HA121-28.
Safety, tolerability, and PK of HA121-28 was assessed in dose-escalation part. The single-patient accelerated titration was carried out at 25 mg and 50 mg; then, the dose escalation proceeded according to a “3 + 3” design in dose range of 100 to 800 mg. Escalation to a higher dose level was considered by the satisfactory review of safety results from the previous lower dose during the first cycle.
The dose-expansion part aims to further access the safety and efficacy of HA121-28 at the selected doses based on data from the dose-escalation part. The RP2D was determined by investigators in view of a thorough review of safety, PK, and efficacy results.
In phase 1 trial, during the dose-escalation part, patients first administered HA121-28 in a single ascending dose under the fasted state, then followed up for seven days. Then, patients received ascending doses of HA121-28 (q.d.) on a 21-day on and 7-day off treatment scheme for a 28-day cycle. For patients deemed beneficial from the treatment by investigators, treatment could remain until disease progression, or they discontinued from the study. In the dose-expansion part of phase 1, as well as phase 2, patients received HA121-28 (q.d.) at the selected doses on a 21-day on and 7-day off treatment scheme until disease progression, or they discontinued from the study.
Treatment-emergent adverse events (TEAEs) were documented during the entire study period. The predefined adverse event of special interest (AESI) was ≥ grade 3 prolonged QT interval. Tumor imaging was performed using contrast-enhanced computed tomography or magnetic resonance imaging at screening, Day 28 of the first cycle, then approximately every eight weeks till the end of the study for phase 1; in phase 2, imaging was scheduled at screening, and every eight weeks during the first 40 weeks, followed by every 12 weeks for the rest of the study period. RECIST 1.1 was used by the independent review committee or investigators for assessment of tumor response. After the original assessment, a repeated assessment was required around four weeks later to confirm a complete or partial response.
The primary endpoints of phase 1 were to investigate the MTD, dose-limiting toxicities, and the incidence and severity of TEAEs. Each TEAE was graded according to the Common Terminology Criteria for Adverse Events (CTCAE, version 5.0) and coded by Medical Dictionary for Regulatory Activities (MedDRA, version 21.0). The secondary endpoints included calculating PK parameters, assessing the ORR and DCR at the recommended dose by investigators as per RECIST 1.1. The exploratory endpoint was PFS.
If grade 2 or higher toxicity related to the study drug occurs in Groups 1 and 2 (as determined by the investigator), dose escalation will proceed using a 3+3 design starting from that dose level. If no DLT is observed at the 800 mg/d dose level after dose escalation, a meeting of investigators will be convened to decide whether to proceed with further dose escalation based on the available PK data, safety, and tolerability information.
5. Definition of DLT and MTD
The following events related to the study drug (including those that are definitely related, highly likely to be related, and possibly related):
(1) Grade 4 hematologic toxicity or grade 3 neutropenia accompanied by a fever of 38.5℃ or higher, or grade 3 thrombocytopenia accompanied by severe bleeding.
(2) Patients who discontinued the medication for more than 7 days due to unresolved toxicity reactions or who discontinued the medication more than twice due to toxicity […]
(3) In the context of supportive treatment, diarrhea of grade 2 lasting more than 7 days, or grade 3 diarrhea lasting more than 3 days.

[1] = Phase 1 Study, patient 5 with Grade 3 QTc prolongation
[2] = Phase 1 Study, patient 9 with Grade 3 QTc prolongation

COc1cc2c(Nc3ccc(Br)cc3F)ncnc2cc1OCCCCN(C)C.Cl.Cl [HA121-28, N-(4-bromo-2-fluorophenyl)-7-(4-(dimethylamino)butoxy)-6-methoxy quinazolin-4-amine dihydrochloride]
450 mg: recommended phase 2 dose (RP2D) (q.d., 21-day on/7-day off)
50.0%: TEAE prolonged QT interval (phase 1, all grades)
10.6%: AESI leading to dose interruption (phase 1)
99.4%: patients with at least one TEAE (phase 1)
57.5%: TEAE rash (phase 1, all grades)
4: Grade of cardiac TEAE: Ventricular arrhythmia (Phase 1 Study, patient 7 with Grade 3 QTc prolongation)
8.1%: grade ≥ 3 TEAE diarrhea (phase 1)
40.0%: patients with grade ≥3 TRAEs (phase 1)
1 (33.3) No. (%): Serious TEAE: Weight loss (Phase 1, 800 mg (N=3)) | Serious TRAE: Any (Phase 1, 800 mg (N=3)) | Serious TRAE: Weight loss (Phase 1, 800 mg (N=3))
0 No. (%): Serious TEAE: Headache (Phase 1, 800 mg (N=3)) | Serious TEAE: Hemoptysis (Phase 1, 800 mg (N=3)) | Serious TEAE: Hydronephrosis (Phase 1, 800 mg (N=3)) | Serious TEAE: Hypertension (Phase 1, 800 mg (N=3)) | Serious TEAE: Hypoalbuminemia (Phase 1, 800 mg (N=3)) | Serious TEAE: Intestinal obstruction (Phase 1, 800 mg (N=3)) | Serious TEAE: Intra-abdominal fluid collection (Phase 1, 800 mg (N=3)) | Serious TEAE: Intracranial tumor hemorrhage (Phase 1, 800 mg (N=3)) | Serious TEAE: Liver injury (Phase 1, 800 mg (N=3)) | Serious TEAE: Lung adenocarcinoma (Phase 1, 800 mg (N=3)) | Serious TEAE: Malignant neoplasm progression (Phase 1, 800 mg (N=3)) | Serious TEAE: Multiple organ dysfunction syndrome (Phase 1, 800 mg (N=3)) | Serious TEAE: Nausea (Phase 1, 800 mg (N=3)) | Serious TEAE: Nephrolithiasis (Phase 1, 800 mg (N=3)) | Serious TEAE: Platelet counts decreased (Phase 1, 800 mg (N=3)) | Serious TEAE: Pleural effusion (Phase 1, 800 mg (N=3)) | Serious TEAE: Pneumonia (Phase 1, 800 mg (N=3)) | Serious TEAE: Pneumonitis (Phase 1, 800 mg (N=3)) | Serious TEAE: Prolonged QT interval (Phase 1, 800 mg (N=3)) | Serious TEAE: Pulmonary embolism (Phase 1, 800 mg (N=3)) | Serious TEAE: Pyrexia (Phase 1, 800 mg (N=3)) | Serious TEAE: Rash (Phase 1, 800 mg (N=3)) | Serious TEAE: Rectal hemorrhage (Phase 1, 800 mg (N=3)) | Serious TEAE: Respiratory failure (Phase 1, 800 mg (N=3)) | Serious TEAE: Seizure (Phase 1, 800 mg (N=3)) | Serious TEAE: Septic shock (Phase 1, 800 mg (N=3)) | Serious TEAE: Sudden cardiac arrest (Phase 1, 800 mg (N=3)) | Serious TEAE: Sudden death (Phase 1, 800 mg (N=3)) | Serious TEAE: Upper respiratory tract infection (Phase 1, 800 mg (N=3)) | Serious TEAE: Ventricular tachycardia (Phase 1, 800 mg (N=3)) | Serious TEAE: Vomiting (Phase 1, 800 mg (N=3)) | Serious TRAE: ALT increased (Phase 1, 800 mg (N=3)) | Serious TRAE: AST increased (Phase 1, 800 mg (N=3)) | Serious TRAE: Abdominal Pain (Phase 1, 800 mg (N=3)) | Serious TRAE: Abdominal distension (Phase 1, 800 mg (N=3)) | Serious TRAE: Acute cholecystitis (Phase 1, 800 mg (N=3)) | Serious TRAE: Acute pancreatitis (Phase 1, 800 mg (N=3)) | Serious TRAE: Anal abscess (Phase 1, 800 mg (N=3)) | Serious TRAE: Aortic intramural hematoma (Phase 1, 800 mg (N=3)) | Serious TRAE: Arrhythmia (Phase 1, 800 mg (N=3)) | Serious TRAE: Blood bilirubin increased (Phase 1, 800 mg (N=3)) | Serious TRAE: Blood creatinine increased (Phase 1, 800 mg (N=3)) | Serious TRAE: COVID-19 (Phase 1, 800 mg (N=3)) | Serious TRAE: Cardiac tamponade (Phase 1, 800 mg (N=3)) | Serious TRAE: Coronary artery atherosclerosis (Phase 1, 800 mg (N=3)) | Serious TRAE: Death (Phase 1, 800 mg (N=3)) | Serious TRAE: Diarrhea (Phase 1, 800 mg (N=3)) | Serious TRAE: Drug eruption (Phase 1, 800 mg (N=3)) | Serious TRAE: Dyspnea (Phase 1, 800 mg (N=3)) | Serious TRAE: Embolism (Phase 1, 800 mg (N=3)) | Serious TRAE: Erythema multiforme (Phase 1, 800 mg (N=3)) | Serious TRAE: Headache (Phase 1, 800 mg (N=3)) | Serious TRAE: Hemoptysis (Phase 1, 800 mg (N=3)) | Serious TRAE: Hydronephrosis (Phase 1, 800 mg (N=3)) | Serious TRAE: Hypertension (Phase 1, 800 mg (N=3)) | Serious TRAE: Hypoalbuminemia (Phase 1, 800 mg (N=3)) | Serious TRAE: Intestinal obstruction (Phase 1, 800 mg (N=3)) | Serious TRAE: Intra-abdominal fluid collection (Phase 1, 800 mg (N=3)) | Serious TRAE: Intracranial tumor hemorrhage (Phase 1, 800 mg (N=3)) | Serious TRAE: Liver injury (Phase 1, 800 mg (N=3)) | Serious TRAE: Lung adenocarcinoma (Phase 1, 800 mg (N=3)) | Serious TRAE: Malignant neoplasm progression (Phase 1, 800 mg (N=3)) | Serious TRAE: Multiple organ dysfunction syndrome (Phase 1, 800 mg (N=3)) | Serious TRAE: Nausea (Phase 1, 800 mg (N=3)) | Serious TRAE: Nephrolithiasis (Phase 1, 800 mg (N=3)) | Serious TRAE: Platelet counts decreased (Phase 1, 800 mg (N=3)) | Serious TRAE: Pleural effusion (Phase 1, 800 mg (N=3)) | Serious TRAE: Pneumonia (Phase 1, 800 mg (N=3)) | Serious TRAE: Pneumonitis (Phase 1, 800 mg (N=3)) | Serious TRAE: Prolonged QT interval (Phase 1, 800 mg (N=3)) | Serious TRAE: Pulmonary embolism (Phase 1, 800 mg (N=3)) | Serious TRAE: Pyrexia (Phase 1, 800 mg (N=3)) | Serious TRAE: Rash (Phase 1, 800 mg (N=3)) | Serious TRAE: Rectal hemorrhage (Phase 1, 800 mg (N=3)) | Serious TRAE: Respiratory failure (Phase 1, 800 mg (N=3)) | Serious TRAE: Seizure (Phase 1, 800 mg (N=3)) | Serious TRAE: Septic shock (Phase 1, 800 mg (N=3)) | Serious TRAE: Sudden cardiac arrest (Phase 1, 800 mg (N=3)) | Serious TRAE: Sudden death (Phase 1, 800 mg (N=3)) | Serious TRAE: Upper respiratory tract infection (Phase 1, 800 mg (N=3)) | Serious TRAE: Ventricular tachycardia (Phase 1, 800 mg (N=3)) | Serious TRAE: Vomiting (Phase 1, 800 mg (N=3))
2: Grade of cardiac TEAE: Cardiopalmus (Phase 1 Study, patient 1 with Grade 3 QTc prolongation) | Grade of cardiac TEAE: Abnormal Q wave of III and aVF leads [2]
600 mg: maximum tolerated dose (MTD) (once daily, phase 1 dose escalation)
48.8%: patients with grade ≥ 3 TEAEs (phase 1)
2.5%: treatment-related SAE rash (phase 1)
0.6%: AESI leading to permanent discontinuation (phase 1)
1: Grade of cardiac TEAE: Bradycardia (Phase 1 Study, patient 2 with Grade 3 QTc prolongation) | Grade of cardiac TEAE: nodal tachycardia (Phase 1 Study, patient 3 with Grade 3 QTc prolongation) | Grade of cardiac TEAE: T wave anomaly (Phase 1 Study, patient 4 with Grade 3 QTc prolongation) | Grade of cardiac TEAE: Complete right bundle branch block [1] | Grade of cardiac TEAE: Incomplete right bundle branch block [1] | Grade of cardiac TEAE: sinus bradycardia [1] | Grade of cardiac TEAE: T wave anomaly (Phase 1 Study, patient 6 with Grade 3 QTc prolongation) | Grade of cardiac TEAE: ST-T wave changes (Phase 1 Study, patient 8 with Grade 3 QTc prolongation) | Grade of cardiac TEAE: Atrial premature beats [2] | Grade of cardiac TEAE: ST-T wave changes [2] | Grade of cardiac TEAE: T wave anomaly [2]
5.6%: grade ≥ 3 TEAE rash (phase 1)
14.4%: patients with treatment-related SAEs (phase 1)
98.1%: patients with at least one TRAE (phase 1)
15.0%: grade ≥ 3 TEAE prolonged QT interval (AESI) (phase 1)
78.8%: TEAE diarrhea (phase 1, all grades)
